Assay [1] has as its target T1, Aldehyde dehydrogenase, mitochondrial (Homo sapiens, UniProt P05091).
T1 sequence (P05091 whole entry): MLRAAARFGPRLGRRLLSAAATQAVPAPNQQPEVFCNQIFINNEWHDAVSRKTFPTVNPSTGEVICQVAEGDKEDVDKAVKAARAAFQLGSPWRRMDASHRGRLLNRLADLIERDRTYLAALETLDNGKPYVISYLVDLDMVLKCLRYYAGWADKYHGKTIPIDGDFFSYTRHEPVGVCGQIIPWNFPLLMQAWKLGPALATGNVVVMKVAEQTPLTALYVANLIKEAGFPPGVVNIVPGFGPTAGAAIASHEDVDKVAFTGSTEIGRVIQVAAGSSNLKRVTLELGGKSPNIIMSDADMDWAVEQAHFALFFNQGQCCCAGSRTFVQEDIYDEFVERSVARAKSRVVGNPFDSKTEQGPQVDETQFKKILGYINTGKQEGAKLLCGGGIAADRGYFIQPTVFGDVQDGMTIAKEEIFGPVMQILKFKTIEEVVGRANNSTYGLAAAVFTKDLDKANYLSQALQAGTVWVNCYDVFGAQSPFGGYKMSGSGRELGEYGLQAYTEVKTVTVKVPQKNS
Kind of assay: Inhibition of human ALDH2 using propionaldehyde as substrate preincubated for 2 mins followed by substrate addition by spectrophotometry in presence of NAD+.

The target of assay [2] is T2, Aldehyde dehydrogenase 1A1 (Homo sapiens, UniProt P00352).
T2 sequence (P00352 whole entry): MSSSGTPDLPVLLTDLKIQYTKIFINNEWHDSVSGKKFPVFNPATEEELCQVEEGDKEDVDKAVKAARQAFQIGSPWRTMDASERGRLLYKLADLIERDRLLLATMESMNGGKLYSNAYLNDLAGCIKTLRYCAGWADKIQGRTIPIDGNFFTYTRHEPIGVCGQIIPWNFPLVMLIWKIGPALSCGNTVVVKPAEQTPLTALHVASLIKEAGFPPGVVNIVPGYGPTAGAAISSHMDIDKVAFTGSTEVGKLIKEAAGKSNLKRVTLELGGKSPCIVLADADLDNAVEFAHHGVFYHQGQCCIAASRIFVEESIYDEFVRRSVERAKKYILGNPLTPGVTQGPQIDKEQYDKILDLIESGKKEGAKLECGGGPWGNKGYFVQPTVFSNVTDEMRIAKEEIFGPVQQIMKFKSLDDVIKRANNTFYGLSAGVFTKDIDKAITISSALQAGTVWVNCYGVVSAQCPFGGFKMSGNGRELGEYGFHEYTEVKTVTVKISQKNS
The experiment in a line: Inhibition of human ALDH1A1 using propionaldehyde as substrate preincubated for 2 mins followed by substrate addition by spectrophotometry in presence of NAD+.

Assay [3] addresses T3, Aldehyde dehydrogenase, dimeric NADP-preferring (Homo sapiens, UniProt P30838).
T3 sequence (P30838 whole entry): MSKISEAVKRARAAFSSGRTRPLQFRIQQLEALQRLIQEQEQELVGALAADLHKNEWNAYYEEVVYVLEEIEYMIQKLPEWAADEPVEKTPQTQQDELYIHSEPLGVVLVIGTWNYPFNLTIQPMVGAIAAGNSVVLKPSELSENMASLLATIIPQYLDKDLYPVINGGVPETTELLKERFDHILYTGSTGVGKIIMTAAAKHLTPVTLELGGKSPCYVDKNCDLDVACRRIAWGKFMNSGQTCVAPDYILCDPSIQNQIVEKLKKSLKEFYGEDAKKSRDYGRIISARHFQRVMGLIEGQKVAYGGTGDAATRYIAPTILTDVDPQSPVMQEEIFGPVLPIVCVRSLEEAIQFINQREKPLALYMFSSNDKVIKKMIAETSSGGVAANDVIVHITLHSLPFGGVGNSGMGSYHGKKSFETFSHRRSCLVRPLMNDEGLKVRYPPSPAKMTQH
Kind of assay: Inhibition of full length human ALDH3A1 expressed in Escherichia coli BL21 (DE3) using benzaldehyde as substrate preincubated for 2 mins followed by substrate addition by spectrophotometry in presence of NADP+.

Assay [4] addresses T2, Aldehyde dehydrogenase 1A1. The experiment in a line: Noncompetitive/mixed type inhibition of human ALDH1A1 by Lineweaver-Burk plot analysis in presence of NAD+.
Assay [5] deals with T3, Aldehyde dehydrogenase, dimeric NADP-preferring. Kind of assay: Inhibition of human ALDH3A1 by Lineweaver-Burk plot analysis in presence of NADP+.
Assay [6] concerns the target T2, Aldehyde dehydrogenase 1A1. The experiment in a line: Competitive inhibition of human ALDH1A1 using propionaldehyde as substrate by Lineweaver-Burk plot analysis.
The target in assay [7] is T1, Aldehyde dehydrogenase, mitochondrial. Kind of assay: Inhibition of human ALDH2 by Lineweaver-Burk plot analysis in presence of NAD+.
In assay [8] the target is T3, Aldehyde dehydrogenase, dimeric NADP-preferring. Kind of assay: Inhibition of human ALDH3A1 using benzaldehyde as substrate by Lineweaver-Burk plot analysis.
The target in assay [9] is T1, Aldehyde dehydrogenase, mitochondrial. The experiment in a line: Inhibition of human ALDH2 using propionaldehyde as substrate by Lineweaver-Burk plot analysis.

`O=C1C(=O)N(CCCc2ccccc2)c2ccccc21`: the IC50 (as a rule, the concentration that gives 50% inhibition) in assay [1] is 1200 nM; in assay [2] it was 50 nM; in assay [3], 460 nM.

In the case of `O=C1C(=O)N(C/C=C/c2ccccc2)c2ccccc21`, the values for the IC50 in assay [1], in assay [2] and in assay [3] were over 100000 nM, 70 nM and 310 nM, respectively.

As to `O=C1C(=O)N(CN2CCOCC2)c2ccccc21`, the IC50 in assay [1] was over 100000 nM; in assay [2], 20000 nM; in assay [3] it was 1300 nM.

Turning to `O=C1C(=O)N(C/C=C/c2ccccc2)c2ccc(Cl)cc21`, the IC50 in assay [2] was 570 nM.

Consider `O=C1C(=O)N(CN2CCN(Cc3ccccc3)CC2)c2ccccc21`, for which the results for the IC50 in [1], in assay [2] and in assay [3] were over 100000 nM, 50000 nM and 930 nM, respectively.

For `O=C1C(=O)N(CCc2ccccc2)c2ccccc21`, the results for the IC50 in assay [1] and in [2] were 3500 nM and 70 nM, respectively.

On to `O=C1C(=O)N(CCc2ccccc2)c2ccc(Cl)cc21`, for which the results for the IC50 in assay [1] and in [2] were 410 nM and 90 nM, respectively.

Regarding `O=C1C(=O)N(CCc2ccccc2)c2ccc(Br)cc21`, the half-inhibitory concentration (IC50) in assay [1] came to 50 nM; in [2] it was 2000 nM; in [3], 18000 nM.

With `Cc1cc(Br)c2c(c1)C(=O)C(=O)N2`, the IC50 came to 2400 nM in assay [1], 720 nM in assay [2] and 360 nM in [3]. Also, the Ki (as a rule, the dissociation constant of the complex between target and ligand, obtained from inhibition or displacement) is 290 nM in [4]; 500 nM in assay [5]; 900 nM in [6]; 2200 nM in assay [7]; 380 nM in assay [8]; 1000 nM in [9].

On to `CCCCCN1C(=O)C(=O)c2ccccc21`, for which the IC50 in assay [1] was determined as 1700 nM; in assay [2], 40 nM; in [3], 420 nM.

Regarding `O=C1C(=O)N(Cc2ccccc2)c2ccc(Br)cc21`, the IC50 in assay [1] was 2100 nM; in [2] it was 580 nM.

Take `O=C1C(=O)N(CN2CCN(Cc3ccc4c(c3)OCO4)CC2)c2ccccc21`: the results for the IC50 in assay [1], in assay [2] and in assay [3] were over 100000 nM, 12000 nM and 300 nM, respectively.

In the case of `O=C1C(=O)N(CN2CCN(Cc3ccc4c(c3)OCO4)CC2)c2ccc(Br)cc21`, the IC50 in assay [1] is over 100000 nM; in assay [2], 15000 nM; in assay [3] it was 73000 nM.

With `O=C1C(=O)N(CN2CCN(Cc3ccc(F)cc3)CC2)c2ccccc21`, the IC50 in assay [2] is over 100000 nM; in assay [3], 1500 nM.

On to `O=C1C(=O)N(CN2CCN(Cc3cccc(F)c3)CC2)c2ccccc21`, for which the IC50 came to 35000 nM in assay [2] and 1900 nM in assay [3].

Regarding `O=C1C(=O)N(CN2CCN(Cc3cccc(Cl)c3)CC2)c2ccccc21`, the IC50 was over 100000 nM in assay [2] and 1700 nM in [3].

Turning to `COc1cccc(CN2CCN(CN3C(=O)C(=O)c4ccccc43)CC2)c1`, the IC50 was 34000 nM in assay [2] and 1200 nM in [3].

With `O=C1C(=O)N(CN2CCN(Cc3ccccc3F)CC2)c2ccccc21`, the IC50 in assay [2] was determined as 4000 nM; in [3] it was 1800 nM.

Consider `O=C1C(=O)N(Cc2ccccc2)c2ccc(Cl)cc21`, for which the figures for the IC50 in assay [1] and in [2] were 2100 nM and 60 nM, respectively.

Take `CN1CCN(CN2C(=O)C(=O)c3ccccc32)CC1`: the results for the IC50 in assay [1], in assay [2] and in [3] were over 100000 nM, 35000 nM and 1600 nM, respectively.

On to `O=C1C(=O)N(CN2CCN(CN3C(=O)C(=O)c4ccccc43)C2)c2ccccc21`, for which the IC50 in [2] is 19000 nM; in assay [3], 1600 nM.

The values above are taken from ChEMBL document CHEMBL3124874, “Development of selective inhibitors for aldehyde dehydrogenases based on substituted indole-2,3-diones” (J Med Chem, 2014).
